Experimental data taken from patent US8981112B2, “Inhibitors of β-secretase” (Boehringer Ingelheim International GmbH, priority 2012, dated 2015).

Legend:
[1] = test system: production of Abeta1-x peptides in H4 neuroglioma cell line stably expressing human APP; test: H4-APPwt Cell-Based Assay (Assay 2), Abeta1-x production; details: H4 neuroglioma cells expressing human APP, Abeta1-x; read-out: H4-APPwt cell IC50 nM (assay 2)
Experimental: H4-APPwt Cell-Based Assay (Assay 2)
Cellular potency of the compounds of the invention was assessed in an assay monitoring production of Abeta1-x peptides in the H4 neuroglioma cell line (ATCC, Cat. #HTB-148) stably expressing human APP, using an immunoassay such as AlphaLISA (PerkinElmer, Cat.# AL288). Tested compounds were dissolved in DMSO and pre-diluted in the culture medium (DMEM containing 10% FBS and 1% penicillin/streptomycin) to achieve twice the final concentration of the compounds in the assay. Equal volumes of the 2× solutions of the tested compounds and cell suspension were added to a 96-well culture plate, so that each well contained ˜10,000 cells in a final volume of 200 μl. Final concentration of DMSO in the assay was 0.2%. The plates were incubated for 5 hrs at 37° C., 5% CO2 to allow cells to attach to the bottom of the wells in the presence of the tested compounds. Then the media was removed and replaced with fresh media containing tested compounds at the same final concentration. The plates were incubated for 18 hrs at 37° C., 5% CO2. Concentrations of Ab1-x were determined using AlphaLISA immunoassay (PerkinElmer, Cat.# AL288) following manufacturer's protocol. Concentrations of Abeta1-x in the wells containing either DMSO or 10 μM beta-secretase inhibitor (BACE inhibitor IV, EMD Bioscience, Cat. #565788) were used as uninhibited and background controls, correspondingly, for calculating percent inhibition values for each well with the tested compounds.

[2] = In Vitro Phospholipidosis Assay (Assay 4), Nile red staining; format: cell-based; details: human, first effect concentration, U937 cells, read-out: Phospholipidosis FEC IC50 μM (assay 4)
Experimental: In Vitro Phospholipidosis Assay (Assay 4)
The phospholipidogenic potential of test compounds was assayed using the human hematopoetic U937 cell line. The test principle was to analyze the phospholipid content by staining the cells with the fluorescent dye Nile red.
U937 cells were seeded into cell culture plates at 0.5×10^6 cells/mL in RPMI medium containing 10% FBS, 1% DMSO, and 0.005% gentamicin. The cells were then cultivated with or without different concentrations of test compounds for 48 h under standard culture conditions.
For harvesting the cells were centrifuged at 130×g for 4 min and washed once with PBS. Then 2×0.5 mL cell suspension was prepared for non-fixed cell measurement (0.5 mL for propidium iodide (PI) viability measurement and 0.5 mL for Nile red measurement).
The remaining cells were fixed with 3.7% formaldehyde for 30 min. After a further centrifugation step cells were resuspended with 1.3 mL Nile red working solution (1 μg/mL) and incubated for 5 min at rt. The cell suspension was then washed twice with 3 mL PBS and centrifuged with 130×g for 4 min. The supernatant was discarded and the cells were resuspended with 0.5 mL PBS and kept for flow cytometry measurement. For Nile red staining of the 0.5 mL non-fixed cell samples, 50 μL of a ready to use Nile red solution (10 μg/mL) were added per sample. Samples were kept on ice for 5 min. Thereafter, they were washed once with 4 mL PBS (4° C., 250×g for 8 min) and finally resuspended in 400 μL PBS and kept for flow cytometry measurement.
For the viability measurement, 12.5 μL of the ready to use PI solution (10 μg/mL) were added to the 0.5 mL non-fixed cell suspension. After 15 min of incubation on ice, the samples were measured by flow cytometry using a Coulter Epics XL/MCL flow cytometer.
The viability of the cells of each sample was determined by flow cytometry measurement of the PI content at channel 2 (568-590 nm). Cut-off gates for the fluorescence-dependent differentiation between live and dead cells were defined based on the analysis of cell culture medium control samples.
Only samples with a cell viability of >=90% relative to control samples were analyzed for phospholipidosis. For that, each Nile red sample (non-fixed and fixed samples) was measured by flow cytometry at channel 1 (504-541 nm) and channel 4 (660-680 nm).
For each channel, relative Nile red fluorescence intensity of a test sample was calculated compared to control samples and expressed as percentage of control fluorescence intensity. The assessment of the phospholipidogenic potential and the first effect concentration (FEC) of a test compound was done manually based on the fluorescence intensities at both wavelengths for the fixed cells as well as for the non-fixed cells.

| Compound | IC50 [1] | IC50 at 48 h [2] |
| --- | --- | --- |
| CO[C@H]1[C@H](C)C[C@@]2(Cc3ccc(C#N)cc3[C@]23N=C(N)N(C[C@@H]2CCO2)C3=O)C[C@@H]1C (stereo in doubt) [Example 18] | 1.02 nM | > 400 µM |
| CO[C@H]1[C@H](C)C[C@@]2(Cc3ccc(C#N)cc3[C@]23N=C(N)N(C2COC2)C3=O)C[C@@H]1C [Example 12] | 1.1 nM | 400 µM |
| CO[C@H]1[C@H](C)C[C@@]2(Cc3ccc(C#N)cc3[C@]23N=C(N)N(CC2COC2)C3=O)C[C@@H]1C [Example 13] | 0.92 nM | 200 µM |
| CO[C@H]1[C@H](C)C[C@@]2(Cc3ccc(C#N)cc3[C@]23N=C(N)N(C[C@H]2CCCO2)C3=O)C[C@@H]1C [Example 14] | 0.12 nM | > 200 µM |
| CO[C@H]1[C@H](C)C[C@@]2(Cc3ccc(C#N)cc3[C@]23N=C(N)N(C[C@@H]2CCCO2)C3=O)C[C@@H]1C [Example 15] | 0.11 nM | 200 µM |
| CO[C@H]1[C@H](C)C[C@@]2(Cc3ccc(C#N)cc3[C@]23N=C(N)N(CC(C)(C)F)C3=O)C[C@@H]1C [Example 17] | 0.89 nM | > 200 µM |
| CO[C@H]1[C@H](C)C[C@@]2(Cc3ccc(C#N)cc3[C@]23N=C(N)N(C[C@H]2COCCO2)C3=O)C[C@@H]1C [Example 22] | 0.26 nM | > 400 µM |
| CC[C@@H]1C[C@@]2(Cc3ccc(C#N)cc3[C@]23N=C(N)N(CC(C)(C)F)C3=O)C[C@H](C)[C@H]1OC [Example 26] | 0.2 nM | > 200 µM |

More lines, main results first:

| IC50 [1] | Compound | IC50 at 48 h [2] |
| --- | --- | --- |
| 0.29 nM | CC[C@@H]1C[C@]2(CC[C@H]1OC)Cc1ccc(C#N)cc1[C@]21N=C(N)N(CC2CCOCC2)C1=O [Example 2] | 200 µM |
| 0.28 nM | CC[C@@H]1C[C@]2(CC[C@H]1OC)Cc1ccc(C#N)cc1[C@]21N=C(N)N(CC2(F)CCOCC2)C1=O [Example 4] | > 400 µM |
| 0.49 nM | CO[C@H]1CC[C@@]2(Cc3ccc(C#N)cc3[C@]23N=C(N)N(CC2(C)COC2)C3=O)C[C@@H]1C [Example 8] | > 200 µM |
| 1.9 nM | CO[C@H]1CC[C@@]2(Cc3ccc(C#N)cc3[C@]23N=C(N)N(Cc2ccncn2)C3=O)C[C@@H]1C [Example 9] | 400 µM |
| 0.48 nM | CO[C@H]1[C@H](C)C[C@@]2(Cc3ccc(C#N)cc3[C@]23N=C(N)N(C[C@@H]2COCCO2)C3=O)C[C@@H]1C [Example 21] | 400 µM |
| 0.18 nM | CO[C@H]1[C@H](C)C[C@@]2(Cc3ccc(C#N)cc3[C@]23N=C(N)N(CC2(F)CCOCC2)C3=O)C[C@@H]1C [Example 23] | > 200 µM |
